Measured values: patent publication US9216981B2, “Purinylpyridinylamino-2,4-difluorophenyl sulfonamide derivative, pharmaceutically acceptable salt thereof, preparation method thereof, and pharmaceutical composition with inhibitory activity against Raf kinase, containing same as active ingredient” (Medpacto, Inc., priority 2010, dated 2015)

Columns and labels:
B-Raf = B-Raf (Homo sapiens (Human), UniProt P15056); assay: B-Raf kinase activity (B-Raf/MEK1/MAPK2 cascade, MBP phosphorylation, [γ-32P]ATP); assay type: biochemical; conditions: activated B-Raf, inactivated MEK1, inactivated MAPK2, 30° C., 30 minutes, read-out: B-Raf Enzyme Activity
Sequence of B-Raf (P15056 whole entry): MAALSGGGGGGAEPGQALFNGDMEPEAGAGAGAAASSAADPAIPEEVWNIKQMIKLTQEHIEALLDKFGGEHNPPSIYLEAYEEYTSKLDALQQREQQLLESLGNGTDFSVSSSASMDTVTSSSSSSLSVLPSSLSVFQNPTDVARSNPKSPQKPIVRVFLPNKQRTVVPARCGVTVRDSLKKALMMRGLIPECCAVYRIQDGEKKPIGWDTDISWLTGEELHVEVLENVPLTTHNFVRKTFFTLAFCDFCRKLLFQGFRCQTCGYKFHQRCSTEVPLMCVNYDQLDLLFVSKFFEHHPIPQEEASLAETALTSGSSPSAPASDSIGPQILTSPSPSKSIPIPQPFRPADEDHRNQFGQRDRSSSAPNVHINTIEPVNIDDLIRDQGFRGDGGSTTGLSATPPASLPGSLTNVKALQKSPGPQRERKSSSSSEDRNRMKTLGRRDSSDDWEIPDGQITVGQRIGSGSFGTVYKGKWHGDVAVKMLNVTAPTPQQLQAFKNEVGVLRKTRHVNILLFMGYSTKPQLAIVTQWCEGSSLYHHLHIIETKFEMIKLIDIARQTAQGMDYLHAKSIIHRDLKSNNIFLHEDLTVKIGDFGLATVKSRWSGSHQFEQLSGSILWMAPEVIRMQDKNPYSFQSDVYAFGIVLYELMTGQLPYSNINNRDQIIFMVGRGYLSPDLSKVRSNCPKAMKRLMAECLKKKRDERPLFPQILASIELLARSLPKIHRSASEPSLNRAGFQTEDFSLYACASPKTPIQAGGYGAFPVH
Description: To check the B-Raf kinase inhibitory activity of the compounds of the present invention, the following experiments were conducted.
20 μl of diluting solvent (20 mM MOPS, pH 7.2, 25 mM β-glycerol phosphate, 5 mM EGTA, 1 mM sodium orthovanadate, 1 mM dithiothreitol) and 10 μl of Mg/ATP mixed solution (500 μM ATP, 75 mM magnesium chloride) were added into a centrifuge tube, the derivative compound of Formula 1 was added or the compounds of the Examples were not added as a control group, and then 1 ng of activated B-Raf, 0.4 ng of inactivated MEK1, and 1 μg of inactivated MAPK2 were added. The solutions in the tube were collected on the bottom via centrifugation and were reacted at 30° C. for 30 minutes. After taking 4 μl of the mixed solution, the test proceeded to the next step.
(2) Phosphorylation of Matrix Protein MBP by MAPK2
10 μl of diluting solvent, 20 μg of MBP used as a matrix, and 10 μl of diluted [γ-32P]ATP (1 μCi/μL) were added into the 4 μl of the mixed solution obtained from (1). The solutions in the tube were collected on the bottom via centrifugation and were reacted at 30° C. for 30 minutes. And 25 μl of the reacted solution was put carefully on the center of a filter paper (2 cm×2 cm P81) for 30 seconds. Afterwards, the filter paper was cleaned with 0.75% phosphoric acid for 10 minutes three times and with acetone for 5 minutes one time. The filter paper was then moved to a scintillation vial and 5 ml of scintillation cocktail was added thereto. The inhibition rate (IC50) over B-Raf activity was measured by reading radioactivity through a scintillation counter while comparing to the control group.

A375P cell line = assay: B-Raf cell activity inhibition (A375P growth inhibition, MTT assay); assay type: cell-based; conditions: A375P human melanoma, V600E mutant of B-Raf, 72 hours
Description: To check the B-Raf cell activity inhibitory capability of the compounds of the present invention, the following experiments were conducted in A375P cell line (ATCC). […] A375 cell was maintained in DMEM supplemented with 10% fetal bovine serum, glutamine (2 mM), penicillin (100 U/mL), and streptomycin (100 μg/mL). The cell was maintained at 37° C., and in 5% CO2 and 100% humidity. To conduct the growth inhibition test, the cell was plated by using a white 384-well microplate, with 1000 cells/20 μl plated per 1 well. After 24 hours, 5 μl of 5× stock solution of drug was added. All the drugs were initially prepared with 200× stock solution in DMSO, and the final concentration of DMSO was 0.5%. The cell was incubated at 37° C. for 72 hours. For MTT assay, ‘CellTiter 96 (R) Non-Radioactive Cell Proliferation Assay (G4100)’ kit by Promega Corp. was used. 15 μl of dye solution of the Promega kit was put into each well and was cultured in the incubator for 4 hours. And 100 μl of each Solubilization/Stop Solution substance of the kit was added and fixed in the incubator for 24 hours again. And then, absorbance was measured by using a 96-well plate reader with 570 nm of absorbance.

Structure (SMILES)	IC50 (B-Raf) [µM]	IC50 (A375P cell line) [µM]
CC(C)S(=O)(=O)Nc1ccc(F)c(Nc2ncccc2-c2ncnc3[nH]cnc23)c1F [Example 1, N-(3-(3-(9H-purin-6-yl)pyridin-2-ylamino)-2,4-difluorophenyl)propane-2-sulfonamide]	0.017	0.12
O=S(=O)(Nc1ccc(F)c(Nc2ncccc2-c2ncnc3[nH]cnc23)c1F)c1cccc(C(F)(F)F)c1 [Example 2, N-(3-(3-(9H-purin-6-yl)pyridin-2-ylamino)-2,4-difluorophenyl)-3-(trifluoromethyl)benzenesulfonamide]	0.0088	0.23
O=S(=O)(Nc1ccc(F)c(Nc2ncccc2-c2ncnc3[nH]cnc23)c1F)c1ccc(C(F)(F)F)cc1 [Example 3, N-(3-(3-(9H-purin-6-yl)pyridin-2-ylamino)-2,4-difluorophenyl)-4-(trifluoromethyl)benzenesulfonamide]	0.03	5.2
O=S(=O)(Nc1ccc(F)c(Nc2ncccc2-c2ncnc3[nH]cnc23)c1F)c1cccs1 [Example 4, N-(3-(3-(9H-purin-6-yl)pyridin-2-ylamino)-2,4-difluorophenyl)thiophene-2-sulfonamide]	0.012	0.03
CCCS(=O)(=O)Nc1ccc(F)c(Nc2ncccc2-c2ncnc3[nH]cnc23)c1F [Example 5, N-(3-(3-(9H-purin-6-yl)pyridin-2-ylamino)-2,4-difluorophenyl)propan-1-sulfonamide]	0.023	0.31
O=S(=O)(Nc1ccc(F)c(Nc2ncccc2-c2ncnc3[nH]cnc23)c1F)c1ccc(Cl)c(Cl)c1 [Example 6, N-(3-(3-(9H-purin-6-yl)pyridin-2-ylamino)-2,4-difluorophenyl)-3,4-dichlorobenzenesulfonamide]	0.72	2.8
O=S(=O)(Nc1ccc(F)c(Nc2ncccc2-c2ncnc3[nH]cnc23)c1F)c1cc2ccccc2o1 [Example 7, N-(3-(3-(9H-purin-6-yl)pyridin-2-ylamino)-2,4-difluorophenyl)benzofuran-2-sulfonamide]	0.832	4.3
O=S(=O)(Nc1ccc(F)c(Nc2ncccc2-c2ncnc3[nH]cnc23)c1F)c1ccc(Cl)cc1F [Example 8, N-(3-(3-(9H-purin-6-yl)pyridin-2-ylamino)-2,4-difluorophenyl)-4-chloro-2-fluorobenzenesulfonamide]	0.0337	0.7
O=[N+]([O-])c1ccccc1CS(=O)(=O)Nc1ccc(F)c(Nc2ncccc2-c2ncnc3[nH]cnc23)c1F [Example 9, N-(3-(3-(9H-purin-6-yl)pyridin-2-ylamino)-2,4-difluorophenyl)-1-(2-nitrophenyl)methansulfonamide]	1.5	
COc1ccc(S(=O)(=O)Nc2ccc(F)c(Nc3ncccc3-c3ncnc4[nH]cnc34)c2F)cc1OC [Example 10, N-(3-(3-(9H-purin-6-yl)pyridin-2-ylamino)-2,4-difluorophenyl)-3,4-dimethoxybenzenesulfonamide]	1.2	10.2
O=S(=O)(Nc1ccc(F)c(Nc2ncccc2-c2ncnc3[nH]cnc23)c1F)C1CCCCC1 [Example 11, N-(3-(3-(9H-purin-6-yl)pyridin-2-ylamino)-2,4-difluorophenyl)cyclohexanesulfonamide]	0.206	0.34
O=S(=O)(Nc1ccc(F)c(Nc2ncccc2-c2ncnc3[nH]cnc23)c1F)c1ccc(OC(F)(F)F)cc1 [Example 12, N-(3-(3-(9H-purin-6-yl)pyridin-2-ylamino)-2,4-difluorophenyl)-4-(trifluoromethoxy)benzenesulfonamide]	0.61	0.6
O=S(=O)(Nc1ccc(F)c(Nc2ncccc2-c2ncnc3[nH]cnc23)c1F)c1ccc(F)cc1C(F)(F)F [Example 13, N-(3-(3-(9H-purin-6-yl)pyridin-2-ylamino)-2,4-difluorophenyl)-4-fluoro-2-(trifluoromethyl)benzenesulfonamide]	0.42	0.15
Cc1c(Cl)cccc1S(=O)(=O)Nc1ccc(F)c(Nc2ncccc2-c2ncnc3[nH]cnc23)c1F [Example 14, N-(3-(3-(9H-purin-6-yl)pyridin-2-ylamino)-2,4-difluorophenyl)-3-chloro-2-methyl benzenesulfonamide]	0.002	0.006
O=S(=O)(Nc1ccc(F)c(Nc2ncccc2-c2ncnc3[nH]cnc23)c1F)c1ccco1 [Example 15, N-(3-(3-(9H-purin-6-yl)pyridin-2-ylamino)-2,4-difluorophenyl)furan-2-sulfonamide]	0.001	11
COC(=O)c1sccc1S(=O)(=O)Nc1ccc(F)c(Nc2ncccc2-c2ncnc3[nH]cnc23)c1F [Example 16, Methyl-3-(N-(3-(3-(9H-purin-6-yl)pyridin-2-ylamino)-2,4-difluorophenyl)sulfamoyl)thiophene-2-carboxylate]	1.5	9.6
O=S(=O)(Nc1ccc(F)c(Nc2ncccc2-c2ncnc3[nH]cnc23)c1F)c1ccsc1 [Example 17, N-(3-(3-(9H-purin-6-yl)pyridin-2-ylamino)-2,4-difluorophenyl)thiophene-3-sulfonamide]	0.007	0.04
O=S(=O)(Nc1ccc(F)c(Nc2ncccc2-c2ncnc3[nH]cnc23)c1F)c1ccoc1 [Example 18, N-(3-(3-(9H-purin-6-yl)pyridin-2-ylamino)-2,4-difluorophenyl)furan-3-sulfonamide]	0.001	0.002
O=S(=O)(Nc1ccc(F)c(Nc2ncccc2-c2ncnc3[nH]cnc23)c1F)C1CC1 [Example 19, N-(3-(3-(9H-purin-6-yl)pyridin-2-ylamino)-2,4-difluorophenyl)cyclopropansulfonamide]	0.05	0.25
Cc1nc(C)c(S(=O)(=O)Nc2ccc(F)c(Nc3ncccc3-c3ncnc4[nH]cnc34)c2F)s1 [Example 20, N-(3-(3-(9H-purin-6-yl)pyridin-2-ylamino)-2,4-difluorophenyl)-2,4-dimethylthiazole-5-sulfonamide]	0.16	0.7
O=S(=O)(Nc1ccc(F)c(Nc2ncccc2-c2ncnc3[nH]cnc23)c1F)N1CCOCC1 [Example 21, N-(3-(3-(9H-purin-6-yl)pyridin-2-ylamino)-2,4-difluorophenyl)morpholine-4-sulfonamide]	1.3	0.36
Cn1cnc(S(=O)(=O)Nc2ccc(F)c(Nc3ncccc3-c3ncnc4[nH]cnc34)c2F)c1 [Example 22, N-(3-(3-(9H-purin-6-yl)pyridin-2-ylamino)-2,4-difluorophenyl)-1-methyl-1-imidazole-4-sulfonamide]	1.8	1
Cc1ccc(S(=O)(=O)Nc2ccc(F)c(Nc3ncccc3-c3ncnc4[nH]cnc34)c2F)o1 [Example 23, N-(3-(3-(9H-purin-6-yl)pyridin-2-ylamino)-2,4-difluorophenyl)-5-methylfuran-2-sulfonamide]	0.015	0.06
Cc1cc(S(=O)(=O)Nc2ccc(F)c(Nc3ncccc3-c3ncnc4[nH]cnc34)c2F)c(C)o1 [Example 25, N-(3-(3-(9H-purin-6-yl)pyridin-2-ylamino)-2,4-difluorophenyl)-2,5-dimethylfuran-3-sulfonamide]	0.015	0.1
Cc1cc(S(=O)(=O)Nc2ccc(F)c(Nc3ncccc3-c3ncnc4[nH]cnc34)c2F)c(C(F)(F)F)o1 [Example 26, N-(3-(3-(9H-purin-6-yl)pyridin-2-ylamino)-2,4-difluorophenyl)-5-methyl-2-(trifluoromethyl)furan-3-sulfonamide]	0.03	0.33
Cc1cccc(Cl)c1S(=O)(=O)Nc1ccc(F)c(Nc2ncccc2-c2ncnc3[nH]cnc23)c1F [Example 27, N-(3-(3-(9H-purin-6-yl)pyridin-2-ylamino)-2,4-difluorophenyl)-2-chloro-6-methylbenzenesulfonamide]	0.08	0.76
O=S(=O)(Nc1ccc(F)c(Nc2ncccc2-c2ncnc3[nH]cnc23)c1F)c1ccc(Cl)s1 [Example 44]		0.2
